Entries after “also recorded” stand apart in the source; their conditions may differ. Read-outs that look alike come from different tables or passages of the source. In the oligonucleotide strings, read from the 5' end, every base follows the letter of its sugar. An asterisk marks phosphorothioate; unmarked linkages are phosphodiester. Other units and linkages are bracketed, terminal groups are in braces. A string of capitals states the bases alone. [s2] = phosphorodithioate linkage; d = 2'-deoxy (DNA)
Assays:
B16-F10 melanoma [1] = assay: Intratumoral treatment of subcutaneous B16-F10 melanoma, tumor growth; type: in vivo, mouse; details: stand-alone, 0.3mg (10mg/kg) or 1mg (30mg/kg) intratumoral, three times per week for four weeks, C57BL/6 mice
sialic acid expression = assay: Sialic acid expression in tumor tissue and other organs after intratumoral injections (lectin flow cytometry); type: in vivo, mouse; details: after 3 intratumoral injections
CD8+ cells = assay: Tumor infiltration of immune cells after intratumoral injections (flow cytometry); type: in vivo, mouse; details: after 3 intratumoral injections, 0.3mg
B16-F10 melanoma [2] = assay: Effect on B16-F10 tumor growth after depletion of effector immune cells; type: in vivo, mouse
B16-F10 melanoma [3] = assay: Combination with CpG in B16-F10 melanoma, tumor growth and survival; type: in vivo, mouse; details: CpG combination study; P-3Fax-Neu5Ac 0.3mg intratumoral three times per week and/or CpG 100μg peritumoral day 14 and 21
9464D neuroblastoma = assay: Intratumoral treatment of subcutaneous 9464D neuroblastoma, tumor growth; type: in vivo, mouse; details: 10mg/kg or 20m/kg intratumoral three times per week until day 50, C57BL/6 mice
[4] = system: Mouse bone marrow-derived dendritic cells; assay: TLR-mediated maturation of mouse bone marrow-derived dendritic cells (CD80); type: cell-based; details: three days with P-3Fax-Neu5Ac, then 24 hours LPS, CpG or polyI/C
[5] = system: Human monocyte-derived dendritic cells; assay: TLR-mediated maturation of human monocyte-derived dendritic cells (CD80); type: cell-based; details: six donors, four days with P-3Fax-Neu5Ac, then 24 hours polyI/C, R848 or LPS
mouse melanoma cells = details: cited from earlier work
mammalian cells = details: Rillahan et al, 2012, cited from earlier work
tumor cells = details: Büll et al, 2013; cited from earlier work
melanoma cells = details: Büll et al, 2013; cited from earlier work

Compound: COC(=O)C1(OC(C)=O)OC(C(OC(C)=O)C(COC(C)=O)OC(C)=O)C(NC(C)=O)C(OC(C)=O)C1F (stereo not shown) [P-3Fax-Neu5Ac]
- tumor growth (B16-F10 melanoma [1]): hamper B 16-F 10 melanoma growth; also recorded: antagonizes tumor growth in a dose-dependent manner
- tumor growth (B16-F10 melanoma [1]; listed as glycomimetic): delayed tumor growth modestly
- sialic acid expression in tumor tissue (sialic acid expression; 0.3mg or 1mg, MALII, SNA-I or PNA lectin): block sialic acid expression in the tumor mass; also recorded: reduction of sialic acid expression in the isolated tumor tissue
- sialic acid expression in other organs such as the spleen (sialic acid expression; fluorescent sialic acid binding lectins): not other organs such as the spleen
- infiltration of immune cells in the tumor (CD8+ cells): enhanced infiltration of immune cells, especially CD8+ cells in the tumor
- tumor growth suppression mediated by CD8+ cells (B16-F10 melanoma [2]; B16-F10 melanoma model, CD8+ depleted versus non-depleted mice): mediated by effector CD8+ immune cells
- effect of sialic acid blockade on tumor growth upon CD4+ cell depletion (B16-F10 melanoma [2]; CD4+ cell depletion, 0.3mg intratumoral three times per week): unaffected
- effect of sialic acid blockade on tumor growth upon CD8+ cell depletion (B16-F10 melanoma [2]; CD8+ cell depletion, 0.3mg intratumoral three times per week): CD8+ cell depletion abrogated the effect of sialic acid blockade on tumor growth
- effect of sialic acid blockade on tumor growth upon K1.1+ cell depletion (B16-F10 melanoma [2]; K1.1+ cell depletion, 0.3mg intratumoral three times per week): unaffected
- median survival time / survival time (B16-F10 melanoma [3]): slightly prolonged the survival time
- tumor growth (9464D neuroblastoma): hamper 9464D neuroblastoma growth
- activation / maturation of dendritic cells (CD80 expression) [4]: enhances APC maturation with TLR ligands; also recorded: strongly enhances activation of dendritic cells
- activation / maturation of dendritic cells (CD80 expression) [5]: enhances APC maturation with TLR ligands; also recorded: strongly enhances activation of dendritic cells
- expression of sialic acids in melanoma / cancer cells (mouse melanoma cells; Büll et al, 2013, listed as glycomimetic): potently blocks sialic acid synthesis and expression in cancer cells
- duration of the blocking effect (mouse melanoma cells; Büll et al, 2013): almost four days
- expression of sialic acids in melanoma / cancer cells (mouse melanoma cells; Büll et al, 2013): blocks the expression of sialic acids in mouse melanoma cells with high efficiency
- depletion of sialic acids from mammalian cells (mammalian cells): deplete sialic acids from mammalian cells
- cellular cytotoxicity (mammalian cells; mammalian cells): without causing cellular cytotoxicity
- adhesion and migration of tumor cells (tumor cells): can impair adhesion and migration of tumor cells
- growth of melanoma cells treated with the inhibitor before injection into mice (melanoma cells): grow significantly slower

Compound: CpG: CpG oligodeoxynucleotide immune adjuvant; more preferred: phosphodithioate backbone and sequence 5'-TCCATGACGTTCCTGATGCT-3' (DNA dT[s2]dC[s2]dC[s2]dA[s2]dT[s2]dG[s2]dA[s2]dC[s2]dG[s2]dT[s2]dT[s2]dC[s2]dC[s2]dT[s2]dG[s2]dA[s2]dT[s2]dG[s2]dC[s2]dT)
- median survival time / survival time (B16-F10 melanoma [3]): no effect on tumor growth and median survival time
- tumor growth (B16-F10 melanoma [3]): almost no effect on tumor growth

Reference: patent WO2016071431A1, “A combination for cancer therapy” (Stichting Katholieke Universiteit, priority 2014, dated 2016)
